Each block holds one compound with its values, some of them ahead of it.
Legend:
IL-6 = assay: Plasma IL-6 level in stress-loaded wild type mice (ELISA); format: in vivo, mouse; conditions: stress-loaded WT mice; FIG. 5B
Protocol: (§1) For restraint stress, each mouse was kept in a restrainer (a round plastic tube 27 mm in diameter) for 1, 3 or 6 hours, and IL-18 levels were measured. Regarding the analysis of IL-6, each mouse was restrained as described above, and then housed in the starting cage for 6 hours, after which a measurement was performed.
(§2) After restraint, each mouse was anesthetized with diethyl ether, and blood was drawn into an EDTA-containing tube. Plasma was separated by centrifugation at 4° C. and 10000×g for 10 minutes, and stored at −80° C. IL-18 and IL-6 were analyzed by ELISA using Quantikine™ immunoassay kit (R&D Systems) and OptEIA™ (BD-Pharmingen), respectively.
Using IL-18-deficient mice, the relationship between IL-6, which is another stress-related cytokine, and IL-18, was examined. Without stress, IL-6 was undetectable in WT and IL-18 KO, but after 3 hours of stress loading, the IL-6 level was 230 pg/ml in WT and 25 pg/ml in IL-18 KO (FIG. 5A). After liberation from the stress, plasma IL-6 was kept at about 80 pg/ml in WT, but decreased to 5 pg/ml in IL-18 KO (FIG. 5A). Treatment with YVAD-CHO, SOD and anti-IL-18 antibody 70% inhibited the stress-induced increase in plasma IL-6 level in WT (FIG. 5B).

[1] = system: phosphorylated (Thr180/Tyr182) P38 MAP kinase; assay: Phosphorylated P38MAP kinase in the adrenal of restraint stress mice (Western blotting); format: in vivo, mouse; conditions: Western blotting, FIG. 3D
Protocol: (§3) Each mouse was kept in a restrainer for 1 hour, and Ac-YVAD-CHO (200 μM/50 μl PBS(−)), Z-FA-fmk (100 μM/50 μl PBS(−)) and SB-203580 (100 μg/50 μl PBS(−) per mouse) were administered intraperitoneally. 1 and 3 hours after the start of restraint, SOD-1 (20 U) and DPI (30 μg) were administered intraperitoneally to the mouse, and samples were analyzed by Western blotting.
Western blot analysis of IL-18 and phosphorylated P38MAP kinase in adrenal tissue was performed as described below. The adrenal tissue was homogenized in an immunoprecipitation (IP) buffer solution (50 mM Tris pH 7.4, 150 mM NaCl, 0.5% NP-40 and 0.5% sodium deoxycholate) containing a protease inhibitor mixture (manufactured by Roche Diagnostics) using a Polytron homogenizer. The homogenate obtained (100 μg protein) was pre-clarified using protein A/G agarose (Exalpha Biologicals, Inc.), incubated with the anti-mouse IL-18 monoclonal antibody or the anti-phosphorylated (Thr180/Tyr182) P38 MAP kinase antibody and protein A/G agarose (50 μl), and centrifuged (at 13000×g for 25 minutes, 4° C.). The precipitate was boiled, and the adrenal protein was recovered, electrophoresed in 10-20% SDS-polyacrylamide gradient gel, and electrically transferred to a Hybond ECL (manufactured by Amersham) nitrocellulose membrane. The aforementioned membrane was incubated with an antibody (IL-18, phosphorylated (Thr180/Tyr182) P38 MAP kinase, caspase-1 or caspase-11), and the reacted protein was detected using an ECL plus system (manufactured by Amersham biosciences). Procaspase-11 and activated P38 MAP kinase were quantified using a Science Lab 99 image analysis system (manufactured by Fujifilm).

caspase-1 [2] = biological target: T1, caspase-1 (Mus musculus, UniProt P29452); assay: Caspase-1 activity in the adrenal of restraint stress mice (Ac-YVAD-MCA fluorescent substrate); format: in vivo; conditions: given i.p. during restraint
T1 construct: from tissue; host or cells: mouse adrenal (homogenate)
T1 sequence (P29452 119-296 limits assumed): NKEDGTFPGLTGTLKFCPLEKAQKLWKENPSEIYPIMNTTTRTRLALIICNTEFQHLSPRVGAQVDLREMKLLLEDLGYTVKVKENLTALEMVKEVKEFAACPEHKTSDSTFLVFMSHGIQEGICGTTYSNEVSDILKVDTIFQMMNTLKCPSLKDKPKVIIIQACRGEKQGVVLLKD
T1 sequence (P29452 315-402 limits assumed): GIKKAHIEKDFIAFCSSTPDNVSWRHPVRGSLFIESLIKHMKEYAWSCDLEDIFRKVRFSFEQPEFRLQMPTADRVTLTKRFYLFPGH
Protocol: as §3
Caspase-1 activity in the adrenal was measured using a caspase assay kit (manufactured by BD-Pharmingen). Describing briefly, a homogenate of adrenal tissue was incubated with Ac-YVAD-MCA (acetyl-L-tyrosyl-L-valyl-L-alanyl-L-aspartic acid 4-methyl-coumaryl-7-amide), which is a fluorescent substrate for caspase-1, and the MCA leaving from the aforementioned substrate was measured using a fluorescence plate reader (excitation wavelength 380 nm, irradiation wavelength 420-460 nm).

[3] = system: phosphorylated P38MAP kinase; assay: Immunohistochemistry of phosphorylated P38MAP kinase in adrenal cortex of stress-loaded mice; format: in vivo, mouse; conditions: FIG. 3F
Protocol: The adrenal was fixed in formalin, embedded in paraffin, and cut into 4-μm sections. The aforementioned tissue sections were incubated with an antibody (P38 MAP kinase, caspase-11, caspase-1 (these three were diluted 200 fold) or IL-18 (diluted 400 fold)). Using a horseradish peroxidase-conjugated secondary antibody (manufactured by Santa Cruz) and diaminobenzidin (DBA), color development was performed. For control, sections without the primary antibody and sections derived from a mouse without stress were used.

IL-18 precursor = assay: IL-18 (precursor) level in the adrenal of restraint stress mice; format: in vivo, mouse; conditions: given i.p. during restraint
Protocol: as §1
(§4) The anti-ACTH antiserum (50 μl, 1:1), dexamethasone (1 ng/50 μl PBS(−)) or the anti-IL-18 antibody (50 μl, 1:1) was administered intraperitoneally to each mouse; after 10 minutes elapsed, the animal was kept in a restraint tube for 6 hours. Synthetic ACTH (250 μg/50 μl PBS(−)) was injected to the left leg; after 6 hours elapsed, the mice were subjected to the experiment.
as §3
Western blot analysis of IL-18 and phosphorylated P38MAP kinase in adrenal tissue was performed as described below. […] Procaspase-11 and activated P38 MAP kinase were quantified using a Science Lab 99 image analysis system (manufactured by Fujifilm).

IL-18 [4] = assay: Plasma IL-18 level in restraint stress mice (ELISA); format: in vivo, mouse; conditions: given i.p. during restraint (Ac-YVAD-CHO 200 μM/50 μl, Z-FA-fmk 100 μM/50 μl, SB-203580 100 μg, SOD-1 20 U, DPI 30 μg)
Protocol: as §1, §2, §4, §3

caspase-1 [5] = assay: Procaspase-1 in the adrenal after ACTH administration (Western blotting); format: in vivo, mouse; conditions: FIG. 2A lane 2
Protocol: as §4
(§5) Western blot analysis of IL-18 and phosphorylated P38MAP kinase in adrenal tissue was performed as described below. The adrenal tissue was homogenized in an immunoprecipitation (IP) buffer solution (50 mM Tris pH 7.4, 150 mM NaCl, 0.5% NP-40 and 0.5% sodium deoxycholate) containing a protease inhibitor mixture (manufactured by Roche Diagnostics) using a Polytron homogenizer. […] The aforementioned membrane was incubated with an antibody (IL-18, phosphorylated (Thr180/Tyr182) P38 MAP kinase, caspase-1 or caspase-11), and the reacted protein was detected using an ECL plus system (manufactured by Amersham biosciences). Procaspase-11 and activated P38 MAP kinase were quantified using a Science Lab 99 image analysis system (manufactured by Fujifilm).

IL-18 [6] = assay: IL-18 in plasma and adrenal after administration of synthetic ACTH; format: in vivo, mouse; conditions: 250 μg injected to the left leg, after 6 hours, no restraint
Protocol: as §2, §4

Brain astrocytes = assay: IL-18 release from astrocytes with paraquat stimulation; format: cell-based, mouse
Protocol: Brain astrocytes isolated from the mouse neonatal brain by the method of Yang et al. (Yang P, Hernandez M R. Brain Res Brain Res Protoc. 2003 October; 12(2):67-76) were prepared at 1.5-2.0×10^6/ml. This was cultured in Dulbecco's minimum essential medium containing 100 nM of paraquat, which is an active oxygen generator, for 1 hour, after which the medium was exchanged with a paraquat-free medium. The cells were further cultured for 3 hours, after which the medium was collected, and the concentration of IL-18 protein in the medium was measured.

Abdominal macrophages = assay: IL-18 release from macrophages with paraquat stimulation; format: cell-based, mouse; conditions: 100 nM paraquat 15 minutes, SOD 1-20 U/ml
Protocol: Abdominal macrophages isolated from mice by the method of Hamilton et al. (Hamilton T A, Weiel J E, Adams D O., J. Immunol. 1984 May; 132(5):2285-90) were cultured in Dulbecco's minimum essential medium at 1.0-2.0×10^5/dish. The medium was exchanged with the aforementioned medium containing 100 nM of paraquat, which is an active oxygen generator, and the cells were cultured for 15 minutes, after which the medium was exchanged with a paraquat-free medium, and the cells were further cultured for 3 hours, after which the medium was collected, and the concentration of IL-18 protein in the medium was measured.

Synovial membrane tissue = assay: IL-18 release from synovial membrane tissue with paraquat stimulation; format: cell-based, human; conditions: synovial membrane tissue of articular rheumatism patient, 100 nM paraquat 15 minutes; SOD 1-20 U/ml
Protocol: Synovial membrane tissue collected from the articular synovial membrane at a lesion site of an articular rheumatism patient was subjected to tissue culture in an RPMI-1640 medium containing 10% fetal bovine serum by the method of Tanaka et al. (Tanaka M, Harigai M, Kawaguchi Y, Ohta S, Sugiura T, Takagi K, Ohsako-Higami S, Fukasawa C, Hara M, Kamatani N., J. Rheumatol. 2001 August; 28(8):1779-87). The medium was exchanged with the aforementioned medium containing 100 nM of paraquat, which is an active oxygen generator, and the cells were cultured for 15 minutes, after which the medium was exchanged with a paraquat-free medium, and the cells were further cultured for 1 hour, after which the medium was collected, and the concentration of IL-18 protein in the medium was measured.

Brain microglia = assay: IL-18 release from microglia with paraquat stimulation; format: cell-based, mouse
Protocol: Brain microglia isolated from the mouse neonatal brain by the method of Hassan et al. (Hassan N F, Rifat S, Campbell D E, McCawley L J, Douglas S D. J. Leukoc Biol. 1991 July; 50(1):86-92) were cultured at 1.5-2.0×10^6/ml. This was cultured in Dulbecco's minimum essential medium containing 100 nM of paraquat, which is an active oxygen generator, for 1 hour, after which the medium was exchanged with a paraquat-free medium. After further cultivation for 3 hours, the medium was collected, and the concentration of IL-18 protein in the medium was measured.

[7] = system: Primary culture human renal proximal tubular epithelial cells; assay: IL-18 release from renal tubular epithelial cells with paraquat stimulation; format: cell-based
[8] = system: Primary culture human skin keratinocytes; assay: IL-18 release from keratinocytes with UV-B ray irradiation; format: cell-based; conditions: 100 mJ UV-B, SOD 1-20 U/ml or water-soluble vitamin E 100 nM-10 mM/ml
Protocol: Primary culture human skin keratinocytes (keratinocytes: purchased from CAMBREX Company) were cultured in a basal medium for keratinocytes contained in petri dishes for cell culture 6 cm in diameter at 1.0-2.0×10^6/dish. This was irradiated with 100 mJ of ultraviolet B rays (UV-B rays), after which the cells were cultured for 1 hour, after which the medium was collected, and the concentration of IL-18 protein in the medium was measured. Also, after the UV-B ray treatment, the cells were cultured in a medium containing SOD (1, 2.5, 5, 10, 20 U/ml), which is an active oxygen eliminator, or water-soluble vitamin E (100 nM, 1, 2.5, 5, 10 mM/ml), and the concentration of IL-18 protein in the medium was measured. In the keratinocytes, the activation and release of IL-18 by the active oxygen molecular species were observed. Furthermore, these were suppressed by SOD, which is an active oxygen eliminator, or by vitamin E, which neutralizes active oxygen, dose-dependently (FIGS. 7C and 7D).

[9] = system: Primary culture human skin keratinocytes; assay: IL-18 release from keratinocytes with paraquat stimulation; format: cell-based
Protocol: Primary culture human skin keratinocytes (keratinocytes) were cultured in a basal medium for keratinocytes contained in petri dishes for cell culture 6 cm in diameter at 1.0-2.0×10^6/dish. This was cultured in the aforementioned medium containing 1 μM of paraquat, which is an active oxygen generator, for 15 minutes, after which the medium was exchanged with a paraquat-free medium, and the cells were further cultured for 1 hour, after which the medium was collected, and the concentration of IL-18 protein in the medium was measured.

procaspase-11 = assay: Procaspase-11 protein in the adrenal of restraint stress mice (Western blotting); format: in vivo, mouse; conditions: given i.p. during restraint
Protocol: as §3, §5

glyoma cell line C6 = conditions: cited from earlier work

Compound: CC(=O)N[C@@H](Cc1ccc(O)cc1)C(=O)N[C@H](C(=O)N[C@@H](C)C(=O)N[C@H](C=O)CC(=O)O)C(C)C [YVAD-CHO, Ac-YVAD-CHO]
inhibition of the stress-induced increase in plasma IL-6 level (IL-6): 70% | phosphorylation of P38MAP kinase in the adrenal [1]: Neither YVAD-CHO nor Z-FA-fmk influenced | stress-induced increase in caspase-1 activity in the adrenal (caspase-1 [2]): suppressed | accumulation of phosphorylated P38MAP kinase in adrenal cortex [3]: did not influence | IL-18 precursor protein level in the adrenal (IL-18 precursor): did not inhibit | stress-induced increase in plasma IL-18 level (IL-18 [4]): effectively inhibited

Compound: ACTH: Synthetic ACTH (1-24 amino acids) purchased from Peninsula Laboratories Inc. (SYSMEHFRWGKPVGKKRRPVKVYP; Corticotropin; UniProt P01189 138-161, looked up, fragment)
induction of caspase-1 in the adrenal (caspase-1 [5]): induced | plasma IL-18 level after ACTH administration (IL-18 [6]; FIG. 1D): rose, but its degree was lower than that with stress loading | IL-18 level in the adrenal after ACTH administration (IL-18 [6]; FIG. 1E): rose to the same extent as in the case of stress loading

stress-induced increase in caspase-1 activity in the adrenal (caspase-1 [2]): suppressed
Compound: CC(NC(=O)[C@H](Cc1ccccc1)NC(=O)OCc1ccccc1)C(=O)CF (some centres unmarked) [Z-FA-fmk]
phosphorylation of P38MAP kinase in the adrenal [1]: Neither YVAD-CHO nor Z-FA-fmk influenced | accumulation of phosphorylated P38MAP kinase in adrenal cortex [3]: did not influence | stress-induced increase in plasma IL-18 level (IL-18 [4]): suppressed

Compound: vitamin E
activation and release of IL-18 into the medium (Brain astrocytes): suppressed | activation and release of IL-18 into the medium (Abdominal macrophages): suppressed | activation and release of IL-18 into the medium (Synovial membrane tissue): suppressed | activation and release of IL-18 into the medium (Brain microglia): suppressed | activation and release of IL-18 into the medium [7]: suppressed | activation and release of IL-18 into the medium [8]: suppressed | activation and release of IL-18 into the medium [9]: suppressed

Compound: c1ccc2c(c1)[I+]c1ccccc1-2 [DPI, Diphenyleneiodonium chloride]
stress-induced increase in plasma IL-18 level (IL-18 [4]): suppressed

Compound: C[S+]([O-])c1ccc(-c2nc(-c3ccncc3)c(-c3ccc(F)cc3)[nH]2)cc1 (centres unmarked) [SB203580]
stress-induced increase in procaspase-11 protein (procaspase-11): inhibited | activation of caspase-1 subsequent to LPS (glyoma cell line C6): suppressed | induction of caspase-11 mRNA by LPS (glyoma cell line C6): suppressed | stress-induced increase in caspase-1 activity in the adrenal (caspase-1 [2]): lower than those in control mice | stress-induced increase in plasma IL-18 level (IL-18 [4]): lower than those in control mice

Reference: patent publication US20090004683A1, “Indicator Agent for Noninflammatory Stress Response and Use Thereof” (priority 2004, published 2009)
